# Patent US20080287514A1, “Topical compositions containing metronidazole” (priority 2007, published 2008)
# What was measured:
# [1] = Physical stability test (crystal formation or precipitation after 24 hours at room temperature and 7 days at about 4 °C); type: physicochemical; settings: for Results from stability test: aqueous solution, 7 days at about 4 °C
# Procedure: The solubility enhancing effect of the combination of niacinamide and hydroxyalkyl urea in increasing the solubility of metronidazole in the aqueous compositions is evaluated by physical stability of the prepared compositions.
# Therefore, the compositions in accordance with the present invention are subject to a physical stability test. The protocol for the stability test is as follows: metronidazole and the solubility enhancing agents are combined with water either at room temperature or elevated temperature while stirring until dissolved. The solutions are permitted to cool to room temperature. Customary auxiliaries and additives may be added to the aqueous solutions containing solubilized metronidazole and solubility enhancing agents. The solutions may be gelled by using the suitable gelling agents. The compositions both in gel or solution form are then packaged in clear glass vials and sealed. The vials are kept at room temperature for 24 hours and monitored for crystal formation or precipitation. After 24 hours, the vials are placed in a refrigerator maintained at a temperature of about 4° C. for 7 days. After 7 days, the vials are removed from the refrigerator. Evidence of crystal formation or precipitation in the compositions is examined.
# Each formulation was prepared by combining niacinamide and metronidazole in water (q.s 100%). The mixture was kept at a temperature of about 45° C. while stirring until dissolved. The solutions were permitted to cool to room temperature, packaged and sealed in glass vials. The stability tests described in Example 1 were performed and the test results were recorded.
# Each formulation was prepared by combining N-2-hydroxyethyl urea and metronidazole in water (q.s. 100%). The mixture was kept at a temperature of about 45° C. while stirring until dissolved. The solutions were permitted to cool to room temperature, packaged and sealed in glass vials. The stability tests described in Example 1 were performed and the test results were recorded.
# Each formulation was prepared by combining N-2-hydroxyethyl urea, niacinamide, and metronidazole in water (q.s. 100%). N-2-hydroxyethyl urea is available from a number of commercial sources, for example, Aldrich Chemical Company (Milwaukee, Wis.). The mixture was kept either at room temperature or at a temperature of about 45° C. while stirring until dissolved. The solutions were permitted to cool to room temperature, packaged and sealed in glass vials. The stability tests described in Example 1 were performed and the test results were recorded.
# [2] = at 25 °C; cited from earlier work
structure (smiles),measurement,setting,value
"Cc1ncc([N+](=O)[O-])n1CCO [Metronidazole, 1-(2-hydroxyethyl)-2-methyl-5-nitroimidazole]",Results from stability test,"[1]; 1.0% metronidazole, 1.0% N-2-hydroxyethyl urea, 3.0% niacinamide",Crystals
same,Results from stability test,"[1]; 1.0% metronidazole, 1.0% N-2-hydroxyethyl urea, 4.0% niacinamide",Clear
same,Results from stability test,"[1]; 1.0% metronidazole, 2% niacinamide",Crystals formed
same,Results from stability test,"[1]; 1.0% metronidazole, 3.0% N-2-hydroxyethyl urea, 3.0% niacinamide",Clear
same,Results from stability test,"[1]; 1.0% metronidazole, 3% niacinamide",Crystals formed
same,Results from stability test,"[1]; 1.0% metronidazole, 4.0% N-2-hydroxyethyl urea, 1.0% niacinamide",Crystals
same,Results from stability test,"[1]; 1.0% metronidazole, 4% niacinamide",Crystals formed
same,Results from stability test,"[1]; 1.0% metronidazole, 5.0% N-2-hydroxyethyl urea, 1.0% niacinamide",Clear
same,Results from stability test,"[1]; 1.0% metronidazole, 5.0% N-2-hydroxyethyl urea, 1.0% niacinamide, listed as metronidazole",stable
same,Results from stability test,"[1]; 1.0% metronidazole, 5.0% N-2-hydroxyethyl urea, 2.0% niacinamide",Clear
same,Results from stability test,"[1]; 1.0% metronidazole, 5% niacinamide",Clear
same,Results from stability test,"[1]; 1.0% metronidazole, 13% N-2-hydroxyethyl urea",Crystals formed
same,Results from stability test,"[1]; 1.0% metronidazole, 14% N-2-hydroxyethyl urea",Crystals formed
same,Results from stability test,"[1]; 1.0% metronidazole, 15% N-2-hydroxyethyl urea",Crystals formed
same,Results from stability test,"[1]; 1.0% metronidazole, 16% N-2-hydroxyethyl urea",Clear
same,Results from stability test,"[1]; 1.2% metronidazole, 10.0% N-2-hydroxyethyl urea, 2.0% niacinamide",Clear
NC(=O)NCCO [N-2-hydroxyethyl urea],concentration of N-2-hydroxyethyl urea required to obtain a stable aqueous solution of 1.0% metronidazole,[1]; N-2-hydroxyethyl urea as the only solubility enhancing agent,about 16%
same,concentration of N-2-hydroxyethyl urea needed to obtain a stable aqueous solution of 1.0% metronidazole,[1]; concentration of niacinamide is 1.0%,≥ 5.0%
NC(=O)c1cccnc1 [niacinamide],water solubility limit,[2],about 50 % by weight
same,concentration of niacinamide needed to obtain a stable aqueous solution of 1.0% metronidazole,[1]; concentration of N-2-hydroxyethyl urea is 1.0%,about 4.0%
same,N-2-hydroxyethyl urea functionally equivalent to 1% niacinamide in inducing the solubility enhancing effect,"[1]; from Examples 2 and 3, 1.0% metronidazole",about 3.2%
same,concentration of niacinamide required to obtain a stable aqueous solution of 1.0% metronidazole,[1]; niacinamide as the only solubility enhancing agent,about 5%
